Experimental data taken from article PMC4226571, “The E6AP Binding Pocket of the HPV16 E6 Oncoprotein Provides a Docking Site for a Small Inhibitory Peptide Unrelated to E6AP, Indicating Druggability of E6” (PLoS ONE, 2014).
Entries after “also recorded” stand apart in the source; their conditions may differ.

Experiments:
wt HPV16 E6 = assay: Mammalian two-hybrid assay, wt HPV16 E6; type: cell-based; settings: HeLa; peptide-GAL4-BD + wt HPV16 E6-VP16-AD; relative to pACT control = 1.0; three experiments in duplicate
Description: Results were obtained from three individual experiments, each performed in duplicates. Standard deviations are indicated. Asterisks above horizontal lines indicate statistically significant differences from pACT-transfected cells, with p-values of ≤0.001 (***). […] The horizontal line indicates 1.5-fold inhibition. Individual amino acid exchanges are indicated below each column. Error bars indicate standard deviation values. (D) Statistical analysis of the differential binding behaviour of HPV16 E6 mutants 16E6R55A and 16E6Y70A. […] Asterisks above the horizontal lines indicate statistically significant reductions of luciferase activities, with p-values of ≤0.01 (**) or ≤0.001 (***). Error bars indicate standard deviation values.
HeLa (HPV18-positive) and MRI-H-186 (HPV16-positive) cervical carcinoma cells, and H1299 lung cancer cells were grown in DMEM (pH 7.2), supplemented with 10% fetal bovine serum (Gibco Life Technologies, Carlsbad, CA, USA), 2 mM L-glutamine, 100 U/ml penicillin and 100 µg/ml streptomycin (Sigma-Aldrich, Saint Lois, MO). Plasmids were transfected by calcium phosphate co-precipitation as described. […] E6 constructs used in Figure 7C contain an additional flag-tag between E6 and the VP16-AD. Mutant derivatives of HPV16, HPV18 and HPV31 E6, as specified in the text, were generated by site directed mutagenesis and verified by DNA sequencing. […]

HPV16 E6 = settings: ref [17]; cited from earlier work
Description: In previous work, we therefore followed an alternative strategy to screen for E6 inhibitors. […] In order to identify possible structural determinants for this discrepancy, we compared the amino acid sequences of the contact region in HPV16 E6 with the corresponding domain of HPV18 E6.

KEKEEYNSNSSSIASIGLI [pep11**m]
increase of luciferase activity (intracellular E6/peptide binding) (wt HPV16 E6): did not stimulate luciferase activities; also recorded: does not bind to HPV16 E6
binding to HPV16 E6 (in words) (HPV16 E6): defective for E6 binding
